Experimental data from PubChem BioAssay (NCI).
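These data come from cells grown in 96-well plates and exposed to compound for 48 hours at five concentrations. The concentration for full growth arrest is given as TGI.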

How the values were obtained:
Experiment in all cases: DTP human tumour cell line panel, 48 h
[1] = system: PC-3 prostate
[2] = system: TK-10 renal
[3] = system: SF-268 CNS
[4] = system: MDA-MB-435
[5] = system: UACC-257 melanoma
[6] = system: T-47D breast
[7] = system: HS 578T breast
[8] = system: NCI-H23 lung
[9] = system: MALME-3M melanoma
[10] = system: HCT-116 colon
[11] = system: BT-549 breast
[12] = system: HL-60(TB) leukemia
[13] = system: DU-145 prostate
[14] = system: SK-MEL-5 melanoma
[15] = system: EKVX NSCLC
[16] = system: SF-295 CNS
[17] = system: COLO 205 colon
[18] = system: OVCAR-3 ovarian
[19] = system: NCI/ADR-RES ovarian
[20] = system: LOX IMVI melanoma
[21] = system: SK-MEL-2 melanoma
[22] = system: CCRF-CEM leukemia
[23] = system: OVCAR-8 ovarian
[24] = system: NCI-H522 lung
[25] = system: SK-MEL-28 melanoma
[26] = system: SK-OV-3 ovarian
[27] = system: MOLT-4 leukemia
[28] = system: A498 renal
[29] = system: NCI-H226 lung
[30] = system: HOP-92 NSCLC
[31] = system: CAKI-1 renal
[32] = system: ACHN renal
[33] = system: UACC-62 melanoma
[34] = system: 786-0 renal
[35] = system: RPMI-8226 leukemia
[36] = system: SN12C renal
[37] = system: KM12 colon
[38] = system: SW-620 colon
[39] = system: SNB-75 CNS
[40] = system: U251 CNS
[41] = system: UO-31 renal
[42] = system: A549 NSCLC
[43] = system: SF-539 CNS
[44] = system: M14 melanoma
[45] = system: IGROV1 ovarian
[46] = system: NCI-H460 lung
[47] = system: OVCAR-4 ovarian
[48] = system: OVCAR-5 ovarian
[49] = system: MCF7 breast
[50] = system: SNB-19 CNS
[51] = system: MDA-MB-231 breast
[52] = system: HCC-2998 colon
[53] = system: MDA-N
[54] = system: HCT-15 colon
[55] = system: HT29 colon
[56] = system: RXF 393 renal
[57] = system: K-562 leukemia
[58] = system: HOP-62 NSCLC

Measured: TGI

CCC12CCCN3CCc4c(n(c5ccccc45)C(O)(C(=O)OC)C1)C32 (stereo not given)
not listed: [56] | [57] | [58]
> 100 µM: all other assays above

CC1(C)SC2C(NC(=O)C(C(=O)O)c3ccccc3)C(=O)N2C1C(=O)O (stereo not given)
not listed: [24] | [30] | [42] | [46] | [47] | [52]
> 100 µM: all other assays above

N#C/C(=N/Nc1nc[nH]c1C(N)=O)C(=O)Nc1ccccc1
45.7 µM: [24]
89.6 µM: [18]
not listed: [20] | [28] | [30] | [31] | [43]
> 100 µM: all other assays above
